Here are results for 44 compounds from patent publication US20090306122A1, “SUBSTITUTED TETRAHYDROPYRROLOQUINOLINE DERIVATIVES AS KINASE MODULATORS, ESPECIALLY OF TYROSINE AND RAF KINASES” (priority 2005, published 2009).

By IC50 is commonly meant the concentration needed to halve the response being measured.

For this assay, the target named is T1, IGF1-R kinase (Homo sapiens, UniProt P08069).
T1 construct: purchased ProQinase
T1 sequence (P08069 31-1367): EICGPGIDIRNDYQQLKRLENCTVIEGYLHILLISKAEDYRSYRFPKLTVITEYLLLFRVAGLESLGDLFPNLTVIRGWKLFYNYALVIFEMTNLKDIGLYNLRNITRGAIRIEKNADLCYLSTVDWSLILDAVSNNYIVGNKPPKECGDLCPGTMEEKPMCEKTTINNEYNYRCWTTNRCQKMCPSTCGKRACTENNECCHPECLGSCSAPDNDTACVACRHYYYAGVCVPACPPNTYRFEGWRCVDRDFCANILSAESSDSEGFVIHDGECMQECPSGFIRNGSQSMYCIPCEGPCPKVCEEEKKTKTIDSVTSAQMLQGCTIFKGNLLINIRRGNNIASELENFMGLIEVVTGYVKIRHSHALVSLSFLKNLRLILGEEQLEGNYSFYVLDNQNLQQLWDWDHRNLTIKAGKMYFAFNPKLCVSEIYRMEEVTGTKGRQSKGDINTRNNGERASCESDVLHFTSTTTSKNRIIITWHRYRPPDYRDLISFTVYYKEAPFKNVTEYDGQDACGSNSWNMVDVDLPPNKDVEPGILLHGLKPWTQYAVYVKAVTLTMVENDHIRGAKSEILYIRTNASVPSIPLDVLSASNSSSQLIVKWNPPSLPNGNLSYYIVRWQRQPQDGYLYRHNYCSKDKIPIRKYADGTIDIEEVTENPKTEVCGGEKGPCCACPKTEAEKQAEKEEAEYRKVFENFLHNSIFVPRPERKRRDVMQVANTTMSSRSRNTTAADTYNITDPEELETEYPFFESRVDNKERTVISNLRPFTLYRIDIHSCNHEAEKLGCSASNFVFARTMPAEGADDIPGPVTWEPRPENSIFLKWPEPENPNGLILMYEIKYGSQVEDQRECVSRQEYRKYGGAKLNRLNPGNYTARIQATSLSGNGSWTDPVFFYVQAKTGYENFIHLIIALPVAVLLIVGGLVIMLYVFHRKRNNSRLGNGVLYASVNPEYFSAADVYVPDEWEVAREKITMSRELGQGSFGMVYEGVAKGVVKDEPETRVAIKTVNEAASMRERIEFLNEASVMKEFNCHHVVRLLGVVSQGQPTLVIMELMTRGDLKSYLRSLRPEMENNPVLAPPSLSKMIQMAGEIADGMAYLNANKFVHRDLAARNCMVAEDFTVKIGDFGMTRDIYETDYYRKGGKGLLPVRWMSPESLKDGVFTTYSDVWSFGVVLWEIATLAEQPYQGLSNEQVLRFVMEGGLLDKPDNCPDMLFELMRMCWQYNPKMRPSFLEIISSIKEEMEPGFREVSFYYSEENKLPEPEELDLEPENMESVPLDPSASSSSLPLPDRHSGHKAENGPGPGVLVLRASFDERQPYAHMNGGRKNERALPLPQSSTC
In words: Assay for the determination of IGF1-R kinase inhibition (AlphaScreen). The conditions noted are these: ATP 1 μM, biotinylated poly Glu, Tyr 4:1. Format: biochemical. From the text:
Assay for the Determination of IGF1-R Kinase Inhibition
Lit.: G. Warner et al., Current Medicinal Chemistry, 2004, 11, 721-730
Use is made of AlphaScreen technology [(Amplified Luminescent Proximity Homogenous Assay), PerkinElmer], which is based on the amplification of a signal generated on interaction of so-called donor and acceptor beads. The convergence of two molecules can be measured very sensitively via this system.
The AlphaScreen test is based on traditional kinase tests, with the exception that the kinase activity is detected non-radioactively.
The binding of molecules which have been captured on the beads results in energy transfer from one bead to the other, which ultimately results in a luminescence/fluorescence signal.
In the absence of IGF1-R kinase activity, no signal is detected.
The kinase phosphorylates the biotinylated polypeptide (poly Glu, Tyr, 4:1) on the tyrosine.
The phosphorylated biotinylated peptide binds to streptavidin donor beads (biotin-streptavidin binding). The anti-phospho-tyrosine P-Tyr-100 antibody bound to the acceptor beads binds to phospho-tyrosine via the antigen binding site, giving a complex of:
Donor bead-streptavidin <->biotin-phosphopeptide (P substrate)<->antiphospho antibody-acceptor bead
If light having a wavelength of 680 nm is incident, the donor beads produce singlet oxygen, which, on adequate spatial proximity of the acceptor beads (only on formation of complex), causes the latter to emit at 520/620 nm.
Test procedure: the test is carried out in a 384-well OptiPlate™-384 Art.: 6007290 from Perkin Elmer
IGF1-R, enzyme from “ProQinase” • IGF1-R, 20 μl • Final concentration: 0.5 ng of kinase/well • (in 50 mM MOPS assay buffer pH 7.0 (comprising 0.20 mM • EDTA; 5.0 mM MnCl2; 10 mM MgCl2; 0.002% of BriJ; 0.002% of 2-mercaptoethanol and 0.1% of BSA) • +Test substance or standard sample, 3.0 μl • are pipetted into MTP well, shaken briefly and pre-incubated.
Pre-incubation: 30 minutes at RT (with continuous gentle shaking)
ATP/biotinylated substrate mix, 10 μl is added • ATP adenosine 5′-triphosphate, disodium salt (Calbiochem)/biotinylated poly Glu, Tyr, 4:1 (from Perkin Elmer) • Final concentration of ATP: 1 μM • Final concentration of biotinylated poly Glu, Tyr, 4:1:1 nM • Shake briefly and incubate. • Incubation: 45 minutes at RT (with continuous gentle shaking) 3. • Beads, P-Tyr-100 acceptor beads; antiphosphotyrosine (P-Tyr-100) acceptor beads • and simultaneously Streptavidin donor beads, 20 μl, are pipetted into well in a darkened room and shaken briefly. • Final concentration: 5 μg/ml of beads • Acceptor/donor beads are prepared shortly in advance in AlphaScreen detection/stop buffer (25 mM HEPES buffer comprising 100 mM NaCl, 0.1% of BSA, 100 mM EDTA). • This is followed by • Incubation: 20 hours at RT in the dark • Measurement: on the fusion a screen in Alpha programme 1 sec.
(Alpha assays give light when donor and acceptor beads are brought close together.)
Regarding `CCCc1ccc(C2CC(N3CCCC3=O)c3cccc4c3N2CC4)cc1` (centres unmarked) [Compound 11], the half-inhibitory concentration (IC50) was found to be 3500 nM.

As to `COc1ccc(Oc2cccc(C3CC(N4CCCC4=O)c4cccc5c4N3CC5)c2)cc1` (centres unmarked) [Compound 33], half-maximal inhibition (IC50) required 2100 nM.

`O=C1CCCN1C1CC(c2cccc(Cl)c2Cl)N2CCc3cccc1c32` (centres unmarked) [Compound 2] returned a half-inhibitory concentration (IC50) of 5000 nM.

As for `O=C1CCCN1C1CC(c2cccc(-c3ccc(C(F)(F)F)cc3)c2)N2CCc3cccc1c32` (centres unmarked) [Compound 43], half-maximal inhibition (IC50) was put at 7400 nM.

For `O=C1CCCN1C1CC(c2ccc(Cl)c([N+](=O)[O-])c2)N2CCc3cccc1c32` (centres unmarked) [Compound 14], the half-maximal inhibitory concentration (IC50) worked out at 6000 nM.

Take `COc1ccccc1C1CC(N2CCCC2=O)c2cccc3c2N1CC3` (centres unmarked) [Compound 32]: 6000 nM corresponded to half-maximal inhibition (IC50). This lies in the single-digit micromolar range.

For `O=C1CCCN1C1CC(c2cccc3c2OCO3)N2CCc3cccc1c32` (centres unmarked) [Compound 34], the IC50 is 4800 nM.

In the case of `COc1cccc(C2CC(N3CCCC3=O)c3cccc4c3N2CC4)c1OC` (centres unmarked) [Compound 25], the IC50 was 190 nM.

For the compound `O=C1CCCN1C1CC(c2cccc(OCc3ccccc3)c2)N2CCc3cccc1c32` (centres unmarked) [Compound 30], the half-inhibitory concentration (IC50) stood at 2800 nM.

`O=C1CCCN1C1CC(c2ccccc2OCc2ccccc2)N2CCc3cccc1c32` (centres unmarked) [Compound 29] returned an IC50 of 1100 nM.

In turn, `O=C1CCCN1C1CC(c2ccccc2F)N2CCc3cccc1c32` (centres unmarked) [Compound 15] came in with a half-maximal inhibitory concentration (IC50) of 1500 nM.

The compound `CC(C)c1ccc(C2CC(N3CCCC3=O)c3cccc4c3N2CC4)cc1` (centres unmarked) [Compound 9] yielded a concentration for half-maximal inhibition (IC50) of 2000 nM.

As for `CCOc1ccccc1C1CC(N2CCCC2=O)c2cccc3c2N1CC3` (centres unmarked) [Compound 26], the IC50 was found to be 1400 nM.

On to `O=C1CCCN1C1CC(c2cccc(-c3ccc(F)cc3)c2)N2CCc3cccc1c32` (centres unmarked) [Compound 42], for which the IC50 is 5500 nM.

`CC(C)(C)c1ccc(C2CC(N3CCCC3=O)c3cccc4c3N2CC4)cc1` (centres unmarked) [Compound 8] displayed an IC50 of 1600 nM.

In turn, `O=C1CCCN1C1CC(c2cccc(Br)c2)N2CCc3cccc1c32` (centres unmarked) [Compound 3] displayed an IC50 of 1300 nM.

With `Cc1ccc(C2CC(N3CCCC3=O)c3cccc4c3N2CC4)cc1` (centres unmarked) [Compound 17], the midpoint of inhibition, the IC50, lay at 2600 nM.

As to `O=C1CCCN1C1CC(c2cccc(Cl)c2)N2CCc3cccc1c32` (centres unmarked) [Compound 6], the IC50 is 2900 nM.

`O=C1CCCN1C1CC(c2ccccc2Cl)N2CCc3cc(F)cc1c32` (centres unmarked) [Compound 41]: inhibition was half-maximal at 4500 nM (IC50).

`O=C1CCCN1C1CC(c2ccccc2Cl)N2CCc3cccc1c32` (centres unmarked) [Compound 16] gave an IC50 of 3100 nM. The IC50 values of the last two compounds are within 1.5-fold of each other.

`O=C1CCCN1C1CC(c2cc(F)cc(C(F)(F)F)c2)N2CCc3cccc1c32` (centres unmarked) [Compound 20] yielded an IC50 of 10000 nM.

In the case of `Cc1cccc(C2CC(N3CCCC3=O)c3cccc4c3N2CC4)c1` (centres unmarked) [Compound 10], the IC50 is 3600 nM.

For the compound `COc1cccc(OC)c1C1CC(N2CCCC2=O)c2cccc3c2N1CC3` (centres unmarked) [Compound 28], the IC50 came to 2100 nM.

Compound `Cc1ccc(C2CC(N3CCCC3=O)c3cccc4c3N2CC4)cc1[N+](=O)[O-]` (centres unmarked) [Compound 19] gave an IC50 of 3300 nM.

The compound `CCc1ccc(C2CC(N3CCCC3=O)c3cccc4c3N2CC4)cc1` (centres unmarked) [Compound 5] had an IC50 of 2200 nM. Against the preceding compound, the IC50 is about 1.5-fold lower.

In turn, `O=C1CCCN1C1CC(c2ccc(-c3ccccc3[N+](=O)[O-])o2)N2CCc3cccc1c32` (centres unmarked) [Compound 37] displayed an IC50 of 260 nM.

For `O=C1CCCN1C1CC(c2ccc(Cl)cc2Cl)N2CCc3cccc1c32` (centres unmarked) [Compound 23], 4000 nM corresponded to half-maximal inhibition (IC50).

For the compound `O=C1CCCN1C1CC(c2cccc(C(F)(F)F)c2)N2CCc3cccc1c32` (centres unmarked) [Compound 7], the IC50 was 4500 nM.

The compound `O=C1CCCN1C1CC(c2cc(F)cc(F)c2)N2CCc3cccc1c32` (centres unmarked) [Compound 24] registered an IC50 of 3300 nM.

In turn, `O=C1CCCN1C1CC(c2cc(C(F)(F)F)cc(C(F)(F)F)c2)N2CCc3cccc1c32` (centres unmarked) [Compound 13] yielded a half-maximal inhibitory concentration (IC50) of 5690 nM.

With `CCOc1ccc(C2CC(N3CCCC3=O)c3cccc4c3N2CC4)c(OCC)c1C` (centres unmarked) [Compound 35], the IC50 is 3500 nM.

In turn, `O=C1CCCN1C1CC(c2ncc(C(F)(F)F)cc2Cl)N2CCc3cccc1c32` (centres unmarked) [Compound 22] displayed an IC50 of 1700 nM.

In turn, `O=C1CCCN1C1CC(c2ccccc2Br)N2CCc3cccc1c32` (centres unmarked) [Compound 12] displayed an IC50 of 2500 nM.

`COc1ccc(OC)c(C2CC(N3CCCC3=O)c3cccc4c3N2CC4)c1` (centres unmarked) [Compound 27] registered an IC50 of 2100 nM.

In the case of `CC(C)(C)OC(=O)Oc1ccc(C2CC(N3CCCC3=O)c3cccc4c3N2CC4)cc1` (centres unmarked) [Compound 21], inhibition was half-maximal at 1800 nM (IC50).

Compound `COc1cccc(C2CC(N3CCCC3=O)c3cc(F)cc4c3N2CC4)c1` (centres unmarked) [Compound 1, 6-(2-oxopyrrolidin-1-yl)-8-fluoro-4-(3-methoxyphenyl)-1,2,5,6-tetrahydro-4H-pyrrolo[3,2,1-ij]quinoline] displayed an IC50 of 29000 nM.

`COc1cc(C2CC(N3CCCC3=O)c3cccc4c3N2CC4)ccc1OC(=O)OC(C)(C)C` (centres unmarked) [Compound 36]: the half-maximal inhibitory concentration (IC50) was 930 nM. Compared with the last compound, the IC50 is about 31-fold lower.

As to `O=C1CCCN1C1CC(c2cccc(OCc3ccccc3)c2)N2CCc3cc(F)cc1c32` (centres unmarked) [Compound 40], the IC50 stood at 2700 nM.

Compound `O=C1CCCN1C1CC(c2ccc(Cl)cc2F)N2CCc3cccc1c32` (centres unmarked) [Compound 4] had an IC50 of 1500 nM.

The compound `COc1cccc(C2CC(N(C)C(C)=O)c3cccc4c3N2CC4)c1` (centres unmarked) [Compound 38] came in with a half-maximal inhibitory concentration (IC50) of 2100 nM.

In turn, `O=C(O)c1ccc(C2CC(N3CCCC3=O)c3cccc4c3N2CC4)cc1` (centres unmarked) [Compound 45] yielded an IC50 of 14000 nM.

Compound `O=C1CCCN1C1CC(c2cccc(-c3cccc(OC(F)(F)F)c3)c2)N2CCc3cccc1c32` (centres unmarked) [Compound 44] came in with a concentration for half-maximal inhibition (IC50) of 21000 nM. This IC50 lies about 1.5-fold higher than the previous one.

`COc1cccc(C2CC(N3CCCC3=O)c3cccc4c3N2CC4)c1` (centres unmarked) [Compound 31] showed an IC50 of 2000 nM.

As for `O=C1CCCN1C1CC(c2ccc(Br)cc2F)N2CCc3cccc1c32` (centres unmarked) [Compound 18], half-maximal inhibition (IC50) was put at 2100 nM.
